From US5332818A, “Immunosuppressive agent and process of producing the same” (Toray Industries, Inc., priority 1989, dated 1994)

How the values were obtained:
μ receptor = molecular target: T1, μ receptor (Cavia porcellus, UniProt A0ACM8Q262); test: Antagonism of morphine (μ) in electrically stimulated isolated organ; format: cell-based, Guinea pig; details: for concentration dependency of antagonistic activity: μ receptor, FIGS. 1 and 2; for Slope / γ / pA2 (50% Confidence Limit): μ, in vitro; for pA2 (50% Confidence Limit): NLI value is mean ± S.E.
T1 construct: antagonism of morphine
T1 sequence (A0ACM8Q262 1-400): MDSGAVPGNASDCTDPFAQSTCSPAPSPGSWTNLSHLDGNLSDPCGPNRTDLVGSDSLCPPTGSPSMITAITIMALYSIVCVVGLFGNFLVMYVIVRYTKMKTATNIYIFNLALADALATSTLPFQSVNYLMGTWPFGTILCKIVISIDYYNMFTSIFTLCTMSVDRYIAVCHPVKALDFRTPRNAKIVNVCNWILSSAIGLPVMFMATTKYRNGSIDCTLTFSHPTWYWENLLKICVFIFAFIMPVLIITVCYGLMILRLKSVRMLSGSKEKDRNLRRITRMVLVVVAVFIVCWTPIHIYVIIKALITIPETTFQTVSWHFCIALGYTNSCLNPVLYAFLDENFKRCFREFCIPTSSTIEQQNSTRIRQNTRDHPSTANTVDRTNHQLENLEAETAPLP
Procedure: (§1) The term "δ-opioid antagonist" herein used-means a group of compounds which suppress the inhibition by DADLE or DPDPE of contraction of MVD specimen caused by electric stimulation.
(§2) Ke=[antagonist]/(IC50 ratio -1)
(§3) The IC50 ratio used herein is the value obtained by dividing the IC50 of an agonist, which is measured in the presence of an antagonist, with the IC50 value of the […], that is measured in the absence of the antagonist. Ke value is a value which is introduced for compensating the concentration of antagonist when comparing the IC50 ratio. Thus, the smaller the Ke value, the stronger the antagonist activity.
(§4) The antagonistic activities of the naloxindole hydrochloride and the naltrindole methanesulfonic acid salt obtained in Examples 1 and 3 were determined by the following method:
(§5) Guinea pig ileum (containing μ and κ receptors) and mouse vas deferens were taken out and the organs were subjected to electric stimulations. The activities of the compounds for inhibiting the suppression of contraction of the organs by three agonists, that is, morphine (μ), EKC (κ) and DADLE (δ) were measured.

κ receptor = molecular target: T2, κ receptor (Cavia porcellus, UniProt P41144); test: Antagonism of EKC (κ) in electrically stimulated isolated organ; format: cell-based, Guinea pig; details: for concentration dependency of antagonistic activity: κ receptor, FIGS. 1 and 2; for Slope / γ / Kb: κ, in vitro; for Kb: NLI value is mean ± S.E., read-out: pA2 (50% Confidence Limit) (converted)
T2 construct: from tissue; host or cells: guinea pig ileum, isolated, electrically stimulated
T2 sequence (P41144 whole entry): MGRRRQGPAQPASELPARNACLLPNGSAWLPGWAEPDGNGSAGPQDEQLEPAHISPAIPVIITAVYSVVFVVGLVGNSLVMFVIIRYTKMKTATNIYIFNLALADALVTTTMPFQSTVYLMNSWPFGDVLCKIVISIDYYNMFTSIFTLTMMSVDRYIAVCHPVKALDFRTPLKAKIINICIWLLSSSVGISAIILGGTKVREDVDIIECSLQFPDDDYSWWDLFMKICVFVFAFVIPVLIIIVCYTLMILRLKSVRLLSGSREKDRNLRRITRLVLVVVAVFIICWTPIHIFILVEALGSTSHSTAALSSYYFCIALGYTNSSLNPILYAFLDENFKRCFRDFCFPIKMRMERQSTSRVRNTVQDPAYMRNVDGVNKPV
Procedure: as §1, §2, §3, §4, §5

δ receptor = molecular target: T3, δ receptor (Mus musculus, UniProt P32300); test: Antagonism of DADLE (δ) in electrically stimulated isolated organ (vas deferens); format: cell-based; details: for κ/δ / μ/δ: Ke selectivity ratio; for κ/δ / μ/δ / selectivity to the δ receptors with respect to κ receptors / selectivity to the δ receptors with respect to μ receptors: Table 1; for concentration dependency of antagonistic activity: δ receptor, FIGS. 1 and 2; for Slope / γ / Kb: δ, in vitro; for Kb: read-out: pA2 (50% Confidence Limit) (converted)
T3 construct: from tissue; host or cells: mouse vas deferens, isolated, electrically stimulated
T3 sequence (P32300 whole entry): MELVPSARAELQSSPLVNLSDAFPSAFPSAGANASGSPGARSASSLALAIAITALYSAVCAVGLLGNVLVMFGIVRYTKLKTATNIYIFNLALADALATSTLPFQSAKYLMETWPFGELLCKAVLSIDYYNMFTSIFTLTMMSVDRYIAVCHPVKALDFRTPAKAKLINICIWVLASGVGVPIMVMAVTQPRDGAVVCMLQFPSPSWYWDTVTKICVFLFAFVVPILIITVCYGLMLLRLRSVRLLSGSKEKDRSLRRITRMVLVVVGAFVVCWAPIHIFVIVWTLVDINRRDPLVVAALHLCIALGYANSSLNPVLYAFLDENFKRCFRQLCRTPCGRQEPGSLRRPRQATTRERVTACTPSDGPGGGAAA
Procedure: as §1, §2, §3, §4, §5

mouse spleen cells = test: Suppression of mitogen (ConA) reaction; format: cell-based, C57BL/6 mouse; details: 48 hours, 3 cases, read-out: Suppression Rate of Mitogen Reaction; for inhibition at 1 µg/mL: 1 μg/ml; for inhibition at 10 µg/mL: 10 μg/ml; for inhibition at 50 µg/mL: 50 μg/ml
Procedure: If mouse spleen cells are cultured in vitro in the presence of concanavalin A (hereinafter referred to as "ConA" for short), the cells are divided and proliferated (mitogen reaction). In this system, the immunosuppressive agent of the present invention or cyclosporin A as a comparative example was added to the culture medium and the effects to the mitogen reaction were examined.
More particularly, C57BL/6 mouse was sacrificed and the spleen was removed. The spleen cells were suspended in RPMI 1640 culture medium containing 10% fetal calf serum (hereinafter referred to as "RPMI 1640" for short) so as to prepare a spleen cell suspension (5×10^6 cells/ml). In the wells of a flat-bottomed 96-well microplate, 100 μl of the suspension was placed and then 50 μl of RPMI 1640 containing ConA (4 μg/ml) as well as 50 μl of RPMI 1640 containing the test compound in the concentration shown in Table 2 were added. The cells were cultured for 48 hours (37° C. 5%CO2) As a control, 50 μl of RPMI 1640 was added. Eight hours before the termination of the culture, 2 μ Ci of [^3 H] thymidine was […], added. After termination of the culture, the cells were collected on a filter paper by using a cell harvester. After drying the filter paper, the filter paper was placed in a vial containing toluene-based scintillator and the radioactivity was measured by a liquid scintillation counter.
The suppression rate of mitogen reaction was calculated according to the following equation: [formula]

spleen cells = test: Suppression of MLR reaction; format: cell-based, mouse (C57BL/6 and mitomycin-treated Balb/c); details: for inhibition at 1 µg/mL / inhibition at 10 µg/mL / inhibition at 50 µg/mL: Mus musculus, 72 hours, 3 cases, NTI, NTB, NLI as hydrochloric acid salt, read-out: Suppression Rate of MLR Reaction; for inhibition at 1 µg/mL: 1 μg/ml; for inhibition at 10 µg/mL: 10 μg/ml; for inhibition at 50 µg/mL: 50 μg/ml; for MLR reaction: in words, hydrochloric acid salts
Procedure: If spleen cells from two different lines of mouse which are genetically different, the spleen cells recognize the other type of cells, and the cells are divided and proliferated (MLR reaction).
In this system, hydrochloric acid salt of NTI, NTB or NLI, or for comparison, cyclosporine A was added to the reaction medium and their effect to the MLR reaction was examined.
Balb/c mouse was sacrificed and the spleen was removed. The spleen cells were suspended in RPMI 1640 to prepare a spleen cell suspension (1×10^7 cells/ml). The spleen cells were then cultured in mitomycin C-containing RPMI 1640 for 30 minutes (37° C.) so as to carry out the mitomycin treatment. On the other hand, C57BL/6 mouse was sacrificed and spleen cell suspension (1×10^6 cells/ml) was prepared using RPMI 1640.
In the wells of a 96-well flat-bottomed microplate, 100 μl of C57BL/6 mouse spleen cell suspension, 50 μl of mitomycin-treated Balb/c mouse spleen cell suspension and 50 μl of RPMI 1640 containing the test compound were placed and the cells were cultured for 72 hours (37° C., 5%CO2). As a control, 50 μl of RPMI 1640 was added. Eight hours before the termination of the culture, 2 μCi of [^3 H] thymidine was added. After termination of the culture, the cells were collected on a filter paper by using a cell harvester. After drying the filter paper, the filter paper was placed in a vial containing toluene-based scintillator and the radioactivity was measured by a liquid scintillation counter.
The suppression rate of MLR reaction was calculated according to the following equation: [formula]

[1] = test system: graft versus host reaction; test: Suppression of graft versus host reaction; format: in vivo, mouse (BDF1; C57BL/6 spleen cells); details: oral; for Suppression Rate of Graft versus Host Reaction: 100 mg/kg, once a day for 5 days, lymph node weight day 7, 4 cases, ** significance level < 0.02 (NTB), * < 0.05 (NTI); for graft versus host reaction: in words
Procedure: It is known that a graft versus host reaction occurs when spleen cells of a parent are transplanted to F1 mouse. In this system, NTI, NTB or cyclosporine A was administered to F1 mouse and the effects of these compounds on the graft versus host reaction were examined.
C57BL/6 mouse was sacrificed and the spleen was removed. Using phosphate buffered saline, a suspension of spleen cells (2×10^8 cells/ml) was prepared. To plantar of left hind leg of BDF1 mice, 50 μl of this spleen cell suspension was subcutaneously injected. From the day of this injection, each test compound was administered once a day for 5 days. The dose was 100 mg/kg and suspensions of the test compounds in 0.5% carboxymethyl cellulose (hereinafter referred to as "CMC") were orally administered. To the control group, 0.5% CMC alone was administered in the same manner. On the 7th day from the day of injection of the spleen cells, the mice were sacrificed and popliteal lymph nodes of right and left hind legs were removed and the weight of the lymph nodes was measured. The difference between the weight of the lymph nodes of the right and left hind legs was calculated and the difference was used as an index of the graft versus host reaction. The obtained results were analyzed by Student's t-test.
The suppression rate of graft versus host reaction was calculated according to the following equation: [formula]

[2] = in words; cited from earlier work
[3] = in words; cited from earlier work; remark: listed apart in the source

Compound | concentration dependency of antagonistic activity (μ receptor) | Slope (μ receptor) | γ (μ receptor) | pA2 (50% Confidence Limit) (μ receptor) | concentration dependency of antagonistic activity (κ receptor) | Slope (κ receptor) | γ (κ receptor) | Kb (κ receptor) [nM] | κ/δ (δ receptor) | μ/δ (δ receptor) | selectivity to the δ receptors with respect to κ receptors (δ receptor) | selectivity to the δ receptors with respect to μ receptors (δ receptor) | concentration dependency of antagonistic activity (δ receptor) | inhibition at 1 µg/mL (mouse spleen cells) [%] | inhibition at 10 µg/mL (mouse spleen cells) [%] | inhibition at 50 µg/mL (mouse spleen cells) [%] | inhibition at 1 µg/mL (spleen cells) [%] | inhibition at 10 µg/mL (spleen cells) [%] | inhibition at 50 µg/mL (spleen cells) [%] | MLR reaction (spleen cells) | also measured
Oc1ccc2c3c1O[C@H]1c4[nH]c5ccccc5c4C[C@@]4(O)[C@@H](C2)N(CC2CC2)CC[C@]314 [NTI, naltrindole] | increases proportionally with its concentration | 1.330 | 0.791 | 7.42 (7.26-7.58) | increases proportionally with its concentration | 1.807 | 0.941 | 43.7 | 104 | 91 | about 100 times | about 100 times | increases proportionally with its concentration | 12 | 77 | 100 | 0 | 100 | 100 | suppressed | Slope (δ receptor): 1.354; γ (δ receptor): 0.863; Kb (δ receptor): 0.417 nM; Suppression Rate of Graft versus Host Reaction [1]: 47%; graft versus host reaction [1]: suppressed
Oc1ccc2c3c1O[C@H]1c4oc5ccccc5c4C[C@@]4(O)[C@@H](C2)N(CC2CC2)CC[C@]314 [NTB, naltrbenzofuran] |  |  |  |  |  |  |  |  |  |  |  |  |  | 14 | 41 | 100 | 5 | 81 | 100 | suppressed | Suppression Rate of Graft versus Host Reaction [1]: 44%; graft versus host reaction [1]: suppressed
C=CC[C@@H]1/C=C(\C)C[C@H](C)C[C@H](OC)[C@H]2O[C@@](O)(C(=O)C(=O)N3CCCC[C@H]3C(=O)O[C@H](/C(C)=C/[C@@H]3CC[C@@H](O)[C@H](OC)C3)[C@H](C)[C@@H](O)CC1=O)[C@H](C)C[C@@H]2OC [FK-506] |  |  |  |  |  |  |  |  |  |  |  |  |  |  |  |  |  |  |  |  | toxicity to liver [2]: strong toxicity to liver; toxicity to kidney [3]: stronger toxicity to kidney than cyclosporine A
C=CCN1CC[C@]23c4c5ccc(O)c4O[C@H]2c2[nH]c4ccccc4c2C[C@@]3(O)[C@H]1C5 [NLI, naloxindole] | did not show dependency on the concentration | -0.063 | -0.062 | 6.86 ± 0.01 | did not show dependency on the concentration | 0.105 | 0.149 | 141 | 407 | 251 | about 400 times | about 250 times | concentration-dependent | 12 | 56 | 100 | 22 | 95 | 100 | suppressed | affinity to δ receptors (δ receptor; in words, NLI vs NTI): slightly inferior to NTI; Slope (δ receptor): 1.066; γ (δ receptor): 0.936; Kb (δ receptor): 0.55 nM
